Test [1] addresses T1, hSCN3A sodium channels (Homo sapiens, UniProt Q9NY46).
T1 construct: expressed in transfected cells
Kind of test: hSCN3A electrophysiology, whole-cell patch-clamp or PatchXpress 7000, estimated IC-50 (Table B). The test is classed as cell-based. The settings on record: estimated IC-50; hSCN3A cells, whole-cell patch-clamp or PatchXpress 7000; read-out: SCN3A EIC-50. On the procedure:
Human Embryonic Kidney (HEK) cells were transfected with an hSCN3A construct using lipofectamine reagent (Invitrogen), using standard techniques. […] Clones were screened for expression using the whole-cell voltage-clamp technique.
HEK cells stably transfected with hSCN3A were maintained in DMEM medium supplemented with 10% heat-inactivated fetal bovine serum and 400 μg/ml G418 sulfate in an incubator at 37° C. with a humidified atmosphere of 10% CO2. […] For electrophysiological studies, cells were removed from the culture flask by brief trypsinization and replated at low density onto glass cover slips. Cells were typically used for electrophysiological experiments within 24 to 72 h after plating.
All recordings were made at room temperature (22-24° C.) using AXOPATCH 200B amplifiers and PCLAMP software (Axon Instruments, Burlingame, Calif.) or PatchXpress 7000 hardware and associated software (Axon Instruments, Burlingame, Calif.).
Current records were acquired at 20 to 50 KHz and filtered at 5 to 10 KHz.
HEK cells stably transfected with hSCN3A were viewed under Hoffman contrast optics and placed in front of an array of flow pipes emitting either control or compound-containing extracellular solutions. All compounds were dissolved in dimethyl sulfoxide to make 10 mM stock solutions, which were then diluted into extracellular solution to attain the final concentrations desired.
The voltage-dependence of inactivation was determined by applying a series of depolarizing prepulses (8 sec long in 10 mV increments) from a negative holding potential. The voltage was then immediately stepped to 0 mV to assess the magnitude of the sodium current. Currents elicited at 0 mV were plotted as a function of prepulse potential to allow estimation of the voltage midpoint of inactivation (V1/2). Cells were then voltage clamped at the empirically determined V1/2.
Compounds were tested for their ability to inhibit hSCN3A sodium channels by activating the channel with a 20 msec voltage step to 0 mV following an 8 second conditioning prepulse to the empirically determined V1/2 (Table B). Compound effect (% inhibition) was determined by difference in current amplitude before and after application of test compounds. […] Inhibition values <20% and >80% were excluded from the calculation.
In some cases electrophysiological assays were conducted with PatchXpress 7000 hardware and associated software (Molecular Devices Corp) (Table B). All assay buffers and solutions were identical to those used in conventional whole-cell voltage clamp experiments described above. hSCN3A cells were grown as above to 50%-80% confluency and harvested by trypsinization. Trypsinized cells were washed and resuspended in extracellular buffer at a concentration of 1×10^6 cells/ml. The onboard liquid handling facility of the PatchXpress was used for dispensing cells and application of test compounds. Determination of the voltage midpoint of inactivation was as described for conventional whole-cell recordings. Cells were then voltage-clamped to the empirically determined V1/2 and current was activated by a 20 msec voltage step to 0 mV.

The target in test [2] is T1, hSCN3A sodium channels. Kind of test: hSCN3A electrophysiology, Ionworks Quattro automated platform (Table C). The settings on record: for inhibition at 3 µM: read-out: SCN3A % INHIB HTS IWQ 3 μM; for inhibition at 10 µM: read-out: SCN3A % INHIB HTS IWQ 10 μM. Format: cell-based. An outline of the steps:
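HEK cells stably expressing hSCN3A were recorded in perforated-patch mode with 100 μg/ml amphotericin on Ionworks Quattro. The protocol used an inactivating step, a brief hyperpolarized partial recovery, then a depolarized test step. Inhibition was taken from current amplitude before versus after compound addition.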

T1 sequence (Q9NY46 whole entry): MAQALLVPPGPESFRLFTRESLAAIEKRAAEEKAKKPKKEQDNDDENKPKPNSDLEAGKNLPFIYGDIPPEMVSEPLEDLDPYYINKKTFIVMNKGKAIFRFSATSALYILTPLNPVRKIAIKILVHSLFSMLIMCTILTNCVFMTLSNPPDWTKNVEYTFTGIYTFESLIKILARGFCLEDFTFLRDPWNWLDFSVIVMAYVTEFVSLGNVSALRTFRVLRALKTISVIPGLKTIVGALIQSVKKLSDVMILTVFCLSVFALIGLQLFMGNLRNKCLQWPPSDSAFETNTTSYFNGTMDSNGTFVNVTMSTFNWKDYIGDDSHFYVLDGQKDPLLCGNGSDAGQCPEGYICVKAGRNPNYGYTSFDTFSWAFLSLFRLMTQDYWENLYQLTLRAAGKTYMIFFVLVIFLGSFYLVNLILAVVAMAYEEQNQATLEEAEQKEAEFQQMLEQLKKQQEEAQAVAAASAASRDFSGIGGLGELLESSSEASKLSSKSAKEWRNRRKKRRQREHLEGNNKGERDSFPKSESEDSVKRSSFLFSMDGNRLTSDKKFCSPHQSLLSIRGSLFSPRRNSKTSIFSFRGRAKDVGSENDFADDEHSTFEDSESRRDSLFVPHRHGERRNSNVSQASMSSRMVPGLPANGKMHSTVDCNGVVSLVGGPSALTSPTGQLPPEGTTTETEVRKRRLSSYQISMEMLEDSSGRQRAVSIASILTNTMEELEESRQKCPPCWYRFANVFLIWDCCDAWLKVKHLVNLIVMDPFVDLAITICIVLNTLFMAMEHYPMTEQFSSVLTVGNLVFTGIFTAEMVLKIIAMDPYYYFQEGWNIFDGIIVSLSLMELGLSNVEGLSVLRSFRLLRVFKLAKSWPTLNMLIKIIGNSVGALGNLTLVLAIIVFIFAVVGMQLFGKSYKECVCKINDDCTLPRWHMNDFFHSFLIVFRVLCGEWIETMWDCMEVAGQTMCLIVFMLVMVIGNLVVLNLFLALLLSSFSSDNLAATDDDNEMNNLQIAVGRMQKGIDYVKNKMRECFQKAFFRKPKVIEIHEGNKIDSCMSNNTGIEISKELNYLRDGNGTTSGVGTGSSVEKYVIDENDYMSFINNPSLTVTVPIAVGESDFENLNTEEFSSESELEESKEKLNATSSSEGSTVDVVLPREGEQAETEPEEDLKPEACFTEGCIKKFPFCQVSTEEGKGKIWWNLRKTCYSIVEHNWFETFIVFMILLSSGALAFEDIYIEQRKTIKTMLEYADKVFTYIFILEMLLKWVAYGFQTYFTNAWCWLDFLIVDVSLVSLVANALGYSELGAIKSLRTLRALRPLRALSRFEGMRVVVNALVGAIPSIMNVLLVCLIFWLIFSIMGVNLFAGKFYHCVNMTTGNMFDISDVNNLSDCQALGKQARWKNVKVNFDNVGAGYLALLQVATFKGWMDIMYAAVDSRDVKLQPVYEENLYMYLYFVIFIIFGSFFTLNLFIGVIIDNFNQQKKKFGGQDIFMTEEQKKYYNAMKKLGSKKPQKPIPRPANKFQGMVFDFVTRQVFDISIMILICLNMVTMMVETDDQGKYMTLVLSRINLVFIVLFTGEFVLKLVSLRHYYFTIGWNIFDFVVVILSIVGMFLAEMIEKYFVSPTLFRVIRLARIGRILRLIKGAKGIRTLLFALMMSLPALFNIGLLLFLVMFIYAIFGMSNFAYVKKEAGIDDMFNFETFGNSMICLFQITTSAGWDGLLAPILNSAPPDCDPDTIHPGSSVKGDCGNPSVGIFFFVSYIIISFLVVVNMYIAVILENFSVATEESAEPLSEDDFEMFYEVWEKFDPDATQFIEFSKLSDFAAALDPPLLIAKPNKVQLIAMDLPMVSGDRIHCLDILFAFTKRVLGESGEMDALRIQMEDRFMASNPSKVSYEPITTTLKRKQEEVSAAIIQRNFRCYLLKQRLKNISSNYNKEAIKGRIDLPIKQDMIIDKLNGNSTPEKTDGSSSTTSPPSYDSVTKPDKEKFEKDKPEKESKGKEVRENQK

Take `O=C(NCc1ccc(C(F)(F)F)c(Cl)c1)c1ccc(S(=O)(=O)Nc2ncns2)cc1Cl` [Example 374, 2-Chloro-N-[3-chloro-4-(trifluoromethyl)benzyl]-4-[(1,2,4-thiadiazol-5-ylamino)sulfonyl]benzamide]: on hSCN3A sodium channels [1], the IC50 is 230 nM.
Turning to `O=C(NCc1ccc(F)c(OC(F)(F)F)c1)c1ccc(S(=O)(=O)Nc2nccs2)cc1F` [Example 331, 2-Fluoro-N-[4-fluoro-3-(trifluoromethoxy)benzyl]-4-[(1,3-thiazol-2-ylamino)sulfonyl] benzamide], the IC50 on hSCN3A sodium channels [1] is 900 nM.
As for `O=C(NCc1ccc(F)c(C(F)(F)F)c1)c1ccc(S(=O)(=O)Nc2nccs2)c(Cl)c1` [Example 290, 3-Chloro-N-[4-fluoro-3-(trifluoromethyl)benzyl]-4-[(1,3-thiazol-2-yl-amino)sulfonyl]benzamide], the IC50 on hSCN3A sodium channels [1] was 1390 nM.
Take `Cc1ccccc1O[C@@H]1CCN(C(=O)c2ccc(S(=O)(=O)Nc3nccs3)cc2)C1` [Example 204, 4-{[(3R)-3-(2-methylphenoxy)pyrrolidin-1-yl]carbonyl}-N-1,3-thiazol-2-yl-benzenesulfonamide]: the inhibition at 3 µM on hSCN3A sodium channels [2] (3 μM compound) was found to be 18.1%. Also, at hSCN3A sodium channels [2] (10 μM compound), the inhibition at 10 µM was determined as 16.2%.
The like results for `Cc1ccc(CNC(=O)c2ccc(S(=O)(=O)Nc3nccs3)cc2)cc1` [Example 98, N-(4-methylbenzyl)-4-[(1,3-thiazol-2-ylamino)sulfonyl]benzamide] were, in that order, 28.1% and 36.6%.
For `O=C(N[C@@H](CO)Cc1ccccc1)c1ccc(S(=O)(=O)Nc2nccs2)cc1` [Example 185, N-[(1R)-1-benzyl-2-hydroxyethyl]-4-[(1,3-thiazol-2-ylamino)sulfonyl]benzamide] the same measures were 20.9% and 20.8%.
On to `Cc1ccnc(CC2CCCN2C(=O)c2ccc(S(=O)(=O)Nc3nccs3)cc2)c1` (stereo not shown) [Example 248, 4-({2-[(4-Methylpyridin-2-yl)methyl]pyrrolidin-1-yl}carbonyl)-N-1,3-thiazol-2-yl-benzenesulfonamide], for which the inhibition at 3 µM at hSCN3A sodium channels [2] (3 μM compound) is 20.1%. Moreover, on hSCN3A sodium channels [2] (10 μM compound), the inhibition at 10 µM was determined as 14.7%.
The like results for `O=C(NC(c1c(F)cccc1F)C1CC1)c1ccc(S(=O)(=O)Nc2nccs2)cc1` (stereo not shown) [Example 140, N-[cyclopropyl(2,6-difluorophenyl)methyl]-4-[(1,3-thiazol-2-ylamino)sulfonyl]benzamide] were, in that order, 2.34% and 18.9%.
With `O=C(c1ccc(S(=O)(=O)Nc2nccs2)cc1)N1CCCC(Cc2ncccn2)C1` (stereo not shown) [Example 237, 4-{[3-(Pyrimidin-2-ylmethyl)piperidin-1-yl]carbonyl}-N-1,3-thiazol-2-yl-benzenesulfonamide], the inhibition at 3 µM at hSCN3A sodium channels [2] (3 μM compound) came out at 24.7%. The inhibition at 10 µM on hSCN3A sodium channels [2] (10 μM compound) is 17.6%.
In the case of `COc1ccc(C2CC(CO)CN2C(=O)c2ccc(S(=O)(=O)Nc3nccs3)cc2)cc1` (stereo not shown) [Example 280, 4-{[4-(Hydroxymethyl)-2-(4-methoxyphenyl)pyrrolidin-1-yl]carbonyl}-N-1,3-thiazol-2-yl-benzenesulfonamide], the inhibition at 3 µM at hSCN3A sodium channels [2] (3 μM compound) was 13.2%. Also, the inhibition at 10 µM on hSCN3A sodium channels [2] (10 μM compound) came out at 17%.
The like results for `O=C(NCc1cccc(OC(F)(F)F)c1)c1ccc(S(=O)(=O)Nc2nccs2)c(Cl)c1` [Example 285, 3-Chloro-4-[(1,3-thiazol-2-ylamino)sulfonyl]-N-[3-(trifluoromethoxy)benzyl]benzamide] were, in that order, 15.1% and 39.1%.
In the case of `O=C(c1ccc(S(=O)(=O)Nc2nccs2)cc1)N1CCOCC(Cc2ccc(F)cn2)C1` (stereo not shown) [Example 216, 4-({6-[(5-Fluoropyridin-2-yl)methyl]-1,4-oxazepan-4-yl}carbonyl)-N-1,3-thiazol-2-yl-benzenesulfonamide], the inhibition at 3 µM on hSCN3A sodium channels [2] (3 μM compound) was 10.8%. Moreover, the inhibition at 10 µM at hSCN3A sodium channels [2] (10 μM compound) came to 6.67%.
With `N#Cc1cccc(OCC2CCCN(C(=O)c3ccc(S(=O)(=O)Nc4nccs4)cc3)C2)c1` (stereo not shown) [Example 278, 4-({3-[(3-Cyanophenoxy)methyl]piperidin-1-yl}carbonyl)-N-1,3-thiazol-2-yl-benzenesulfonamide], the inhibition at 3 µM at hSCN3A sodium channels [2] (3 μM compound) was 25.4%. Besides, the inhibition at 10 µM on hSCN3A sodium channels [2] (10 μM compound) came to 30%.
As for `CCc1ccc(C)nc1NC(=O)c1ccc(S(=O)(=O)Nc2nccs2)cc1` [Example 178, N-(3-ethyl-6-methylpyridin-2-yl)-4-[(1,3-thiazol-2-ylamino)sulfonyl]benzamide], on hSCN3A sodium channels [2] (3 μM compound), the inhibition at 3 µM was found to be 2.71%. In addition, on hSCN3A sodium channels [2] (10 μM compound), the inhibition at 10 µM was determined as 1.55%.
`Cc1cccc(CC2CCCCN2C(=O)c2ccc(S(=O)(=O)Nc3nccs3)cc2)n1` (stereo not shown) [Example 242]: the “SCN3A % INHIB HTS IWQ 3 μM” value on hSCN3A sodium channels [2] (3 μM compound) worked out at 13.78%. Besides, the “SCN3A % INHIB HTS IWQ 10 μM” value on hSCN3A sodium channels [2] (10 μM compound) amounted to 8.48%.
Take `CC[C@@H](NC(=O)c1ccc(S(=O)(=O)Nc2nccs2)cc1)c1ccccc1` [Example 150, N-[(1R)-1-phenylpropyl]-4-[(1,3-thiazol-2-ylamino)sulfonyl]benzamide]: the inhibition at 3 µM on hSCN3A sodium channels [2] (3 μM compound) was -7.12%. For the same compound, the inhibition at 10 µM at hSCN3A sodium channels [2] (10 μM compound) came out at 22.6%.
Consider `Cc1ccc(F)cc1CNC(=O)c1ccc(S(=O)(=O)Nc2nccs2)cc1` [Example 58, N-(5-fluoro-2-methylbenzyl)-4-[(1,3-thiazol-2-ylamino)sulfonyl]benzamide], for which the inhibition at 3 µM at hSCN3A sodium channels [2] (3 μM compound) was 37.4%. Moreover, the inhibition at 10 µM on hSCN3A sodium channels [2] (10 μM compound) stood at 49.7%.
As to `CC(NC(=O)c1ccc(S(=O)(=O)Nc2nccs2)cc1)c1ccccc1Cl` (stereo not shown) [Example 143, N-[1-(2-chlorophenyl)ethyl]-4-[(1,3-thiazol-2-ylamino)sulfonyl]benzamide], the inhibition at 3 µM at hSCN3A sodium channels [2] (3 μM compound) was determined as 16%. Besides, the inhibition at 10 µM at hSCN3A sodium channels [2] (10 μM compound) came to 32%.
The like results for `O=C(c1ccc(S(=O)(=O)Nc2nccs2)cc1)N1CCCC(COc2ccccc2)C1` (stereo not shown) [Example 267, 4-{[3-(Phenoxymethyl)piperidin-1-yl]carbonyl}-N-1,3-thiazol-2-yl-benzenesulfonamide] were, in that order, 30.1% and 23.1%.
The like results for `O=C(N[C@H](CO)Cc1ccccc1)c1ccc(S(=O)(=O)Nc2nccs2)cc1` [Example 182, N-[(1S)-1-benzyl-2-hydroxyethyl]-4-[(1,3-thiazol-2-ylamino)sulfonyl]benzamide] were, in that order, 4.7% and 4.83%.
Regarding `COc1ccccc1CC1(NC(=O)c2ccc(S(=O)(=O)Nc3nccs3)cc2)CC1` [Example 157, N-[1-(2-methoxybenzyl)cyclopropyl]-4-[(1,3-thiazol-2-ylamino)sulfonyl]benzamide], at hSCN3A sodium channels [2] (3 μM compound), the inhibition at 3 µM is 11.3%. In addition, on hSCN3A sodium channels [2] (10 μM compound), the inhibition at 10 µM was determined as 15.3%.
As to `COc1ccc(CC2CCCN(C(=O)c3ccc(S(=O)(=O)Nc4nccs4)cc3)C2)cc1` (stereo not shown) [Example 270, 4-{[3-(4-Methoxybenzyl)piperidin-1-yl]carbonyl}-N-1,3-thiazol-2-yl-benzenesulfonamide], the inhibition at 3 µM at hSCN3A sodium channels [2] (3 μM compound) was 19.2%. In addition, the inhibition at 10 µM on hSCN3A sodium channels [2] (10 μM compound) worked out at 45.7%. In addition, the “SCN3A INHIB INACT DRC EP IWQ EMAX” value on hSCN3A sodium channels [2] (Emax of dose-response curve, inactivated state) was determined as 53.7. Further, the IC50 at hSCN3A sodium channels [2] (read-out: SCN3A IWQ IC-50) was found to be 27700 nM.
Consider `O=C(c1ccc(S(=O)(=O)Nc2nccs2)cc1)N1CCCCCC1c1ccccc1` (stereo not shown) [Example 268, 4-[(2-Phenylazepan-1-yl)carbonyl]-N-1,3-thiazol-2-yl-benzenesulfonamide], for which, at hSCN3A sodium channels [2] (3 μM compound), the inhibition at 3 µM stood at 11%. In addition, the inhibition at 10 µM on hSCN3A sodium channels [2] (10 μM compound) is 10.6%.
Take `O=C(NC1(Cc2cccc(Cl)c2)CC1)c1ccc(S(=O)(=O)Nc2nccs2)cc1` [Example 137, N-[1-(3-chlorobenzyl)cyclopropyl]-4-[(1,3-thiazol-2-ylamino)sulfonyl]benzamide]: the inhibition at 3 µM on hSCN3A sodium channels [2] (3 μM compound) was 21.8%. For the same compound, the inhibition at 10 µM on hSCN3A sodium channels [2] (10 μM compound) is 36.2%.
As for `Cc1cccc(C2CCCN2C(=O)c2ccc(S(=O)(=O)Nc3nccs3)cc2)c1` (stereo not shown) [Example 228, 4-{[2-(3-Methylphenyl)pyrrolidin-1-yl]carbonyl}-N-1,3-thiazol-2-yl-benzenesulfonamide], the inhibition at 3 µM on hSCN3A sodium channels [2] (3 μM compound) amounted to 19.3%. Further, the inhibition at 10 µM on hSCN3A sodium channels [2] (10 μM compound) worked out at 3.53%.

These data come from patent US8741934B2, “Inhibitors of ion channels” (Pfizer Limited, priority 2007, dated 2014).
